Test results: ChEMBL document CHEMBL3758169, “4-Aminoindazolyl-dihydrofuro[3,4-d]pyrimidines as non-covalent inhibitors of mutant epidermal growth factor receptor tyrosine kinase” (Bioorg Med Chem Lett, 2016)

What was measured:
[1] = target: Serine/threonine-protein kinase Nek9 (Homo sapiens) (UniProt Q8TD19); experiment: Inhibition of NEK9 (unknown origin) at 100 nM
[2] = target: Calcium/calmodulin-dependent protein kinase kinase 1 (Homo sapiens) (UniProt Q8N5S9); experiment: Inhibition of CaMKK1 (unknown origin) at 100 nM
[3] = target: NT-3 growth factor receptor (Homo sapiens) (UniProt Q16288); experiment: Inhibition of TRKC (unknown origin) at 100 nM
[4] = target: Serine/threonine-protein kinase pim-2 (Homo sapiens) (UniProt Q9P1W9); experiment: Inhibition of PIM2 (unknown origin) at 100 nM
Sequence of Serine/threonine-protein kinase pim-2 (Homo sapiens) (Q9P1W9 whole entry, looked up): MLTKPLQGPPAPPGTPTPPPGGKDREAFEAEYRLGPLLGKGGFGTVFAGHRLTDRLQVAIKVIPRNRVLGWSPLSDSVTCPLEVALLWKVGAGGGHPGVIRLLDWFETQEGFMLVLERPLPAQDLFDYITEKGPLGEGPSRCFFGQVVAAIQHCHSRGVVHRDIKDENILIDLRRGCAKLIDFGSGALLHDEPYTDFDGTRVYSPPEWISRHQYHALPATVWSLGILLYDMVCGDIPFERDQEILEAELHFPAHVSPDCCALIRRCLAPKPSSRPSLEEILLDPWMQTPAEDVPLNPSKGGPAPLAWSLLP

[5] = target: Ephrin type-A receptor 3 (Homo sapiens) (UniProt P29320); experiment: Inhibition of EPHA3 (unknown origin) at 100 nM
[6] = target: Calcium/calmodulin-dependent protein kinase type II subunit beta (Homo sapiens) (UniProt Q13554); experiment: Inhibition of CaMKIIbeta (unknown origin) at 100 nM
[7] = target: Calcium/calmodulin-dependent protein kinase kinase 2 (Homo sapiens) (UniProt Q96RR4); experiment: Inhibition of CAMKK2 (unknown origin) at 100 nM
[8] = target: Serine/threonine-protein kinase BRSK1 (Homo sapiens) (UniProt Q8TDC3); experiment: Inhibition of BRSK1 (unknown origin) at 100 nM
[9] = target: Leukocyte tyrosine kinase receptor (Homo sapiens) (UniProt P29376); experiment: Inhibition of LTK (unknown origin) at 100 nM
Sequence of Leukocyte tyrosine kinase receptor (Homo sapiens) (P29376 whole entry): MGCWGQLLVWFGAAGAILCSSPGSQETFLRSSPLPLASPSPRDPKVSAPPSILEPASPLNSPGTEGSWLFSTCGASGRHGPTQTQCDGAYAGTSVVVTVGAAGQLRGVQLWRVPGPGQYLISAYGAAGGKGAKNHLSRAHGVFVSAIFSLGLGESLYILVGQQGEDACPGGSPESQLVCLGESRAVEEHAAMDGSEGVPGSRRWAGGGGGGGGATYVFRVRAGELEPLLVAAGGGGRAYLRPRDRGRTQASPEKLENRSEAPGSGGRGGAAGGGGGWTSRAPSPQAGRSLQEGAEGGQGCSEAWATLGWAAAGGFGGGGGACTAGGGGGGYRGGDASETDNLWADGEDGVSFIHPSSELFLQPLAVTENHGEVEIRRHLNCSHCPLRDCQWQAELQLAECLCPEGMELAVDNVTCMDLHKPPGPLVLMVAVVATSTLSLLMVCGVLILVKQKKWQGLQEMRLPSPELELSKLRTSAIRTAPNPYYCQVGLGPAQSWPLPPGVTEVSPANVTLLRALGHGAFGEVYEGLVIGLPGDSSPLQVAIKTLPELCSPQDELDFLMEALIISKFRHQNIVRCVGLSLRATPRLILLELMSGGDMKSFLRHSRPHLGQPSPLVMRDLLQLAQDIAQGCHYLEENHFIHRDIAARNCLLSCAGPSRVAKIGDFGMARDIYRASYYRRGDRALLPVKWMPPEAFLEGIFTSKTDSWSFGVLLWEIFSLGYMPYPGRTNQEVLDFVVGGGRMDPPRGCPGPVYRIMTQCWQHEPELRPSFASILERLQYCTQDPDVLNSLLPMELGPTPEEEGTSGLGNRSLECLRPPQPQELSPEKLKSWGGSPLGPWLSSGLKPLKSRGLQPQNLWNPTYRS

[10] = target: Tyrosine-protein kinase Fgr (Homo sapiens) (UniProt P09769); experiment: Inhibition of FGR (unknown origin) at 100 nM
[11] = target: Muscle, skeletal receptor tyrosine-protein kinase (Homo sapiens) (UniProt O15146); experiment: Inhibition of MUSK (unknown origin) at 100 nM
[12] = target: Ephrin type-B receptor 1 (Homo sapiens) (UniProt P54762); experiment: Inhibition of EPHB1 (unknown origin) at 100 nM
[13] = target: Homeodomain-interacting protein kinase 1 (Homo sapiens) (UniProt Q86Z02); experiment: Inhibition of HIPK1 (unknown origin) at 100 nM
[14] = target: Sphingosine kinase 1 (Homo sapiens) (UniProt Q9NYA1); experiment: Inhibition of SPHK1 (unknown origin) at 100 nM
[15] = target: Casein kinase II subunit alpha (Homo sapiens) (UniProt P68400); experiment: Inhibition of CK2alpha1 (unknown origin) at 100 nM
Sequence of Casein kinase II subunit alpha (Homo sapiens) (P68400 whole entry, looked up): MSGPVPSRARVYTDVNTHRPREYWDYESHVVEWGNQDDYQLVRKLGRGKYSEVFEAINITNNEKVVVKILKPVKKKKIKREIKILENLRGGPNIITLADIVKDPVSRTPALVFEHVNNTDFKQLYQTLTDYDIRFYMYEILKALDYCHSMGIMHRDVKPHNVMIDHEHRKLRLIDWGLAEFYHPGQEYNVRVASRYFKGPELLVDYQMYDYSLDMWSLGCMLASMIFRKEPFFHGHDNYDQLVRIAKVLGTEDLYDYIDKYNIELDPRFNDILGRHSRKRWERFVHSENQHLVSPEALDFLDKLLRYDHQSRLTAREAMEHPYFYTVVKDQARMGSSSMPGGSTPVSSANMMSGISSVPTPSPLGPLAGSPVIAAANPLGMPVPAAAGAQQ

[16] = target: Ribosomal protein S6 kinase alpha-2 (Homo sapiens) (UniProt Q15349); experiment: Inhibition of RSK3 (unknown origin) at 100 nM
[17] = target: Serine/threonine-protein kinase haspin (Homo sapiens) (UniProt Q8TF76); experiment: Inhibition of Haspin (unknown origin) at 100 nM
[18] = target: Dual specificity tyrosine-phosphorylation-regulated kinase 3 (Homo sapiens) (UniProt O43781); experiment: Inhibition of DYRK3 (unknown origin) at 100 nM
[19] = system: Platelet-derived growth factor receptor alpha (Homo sapiens), P16234 [D842V]; experiment: Inhibition of PDGFRalpha D842V mutant (unknown origin) at 100 nM
Sequence of Platelet-derived growth factor receptor alpha (Homo sapiens), P16234 [D842V] (P16234 whole entry D842V): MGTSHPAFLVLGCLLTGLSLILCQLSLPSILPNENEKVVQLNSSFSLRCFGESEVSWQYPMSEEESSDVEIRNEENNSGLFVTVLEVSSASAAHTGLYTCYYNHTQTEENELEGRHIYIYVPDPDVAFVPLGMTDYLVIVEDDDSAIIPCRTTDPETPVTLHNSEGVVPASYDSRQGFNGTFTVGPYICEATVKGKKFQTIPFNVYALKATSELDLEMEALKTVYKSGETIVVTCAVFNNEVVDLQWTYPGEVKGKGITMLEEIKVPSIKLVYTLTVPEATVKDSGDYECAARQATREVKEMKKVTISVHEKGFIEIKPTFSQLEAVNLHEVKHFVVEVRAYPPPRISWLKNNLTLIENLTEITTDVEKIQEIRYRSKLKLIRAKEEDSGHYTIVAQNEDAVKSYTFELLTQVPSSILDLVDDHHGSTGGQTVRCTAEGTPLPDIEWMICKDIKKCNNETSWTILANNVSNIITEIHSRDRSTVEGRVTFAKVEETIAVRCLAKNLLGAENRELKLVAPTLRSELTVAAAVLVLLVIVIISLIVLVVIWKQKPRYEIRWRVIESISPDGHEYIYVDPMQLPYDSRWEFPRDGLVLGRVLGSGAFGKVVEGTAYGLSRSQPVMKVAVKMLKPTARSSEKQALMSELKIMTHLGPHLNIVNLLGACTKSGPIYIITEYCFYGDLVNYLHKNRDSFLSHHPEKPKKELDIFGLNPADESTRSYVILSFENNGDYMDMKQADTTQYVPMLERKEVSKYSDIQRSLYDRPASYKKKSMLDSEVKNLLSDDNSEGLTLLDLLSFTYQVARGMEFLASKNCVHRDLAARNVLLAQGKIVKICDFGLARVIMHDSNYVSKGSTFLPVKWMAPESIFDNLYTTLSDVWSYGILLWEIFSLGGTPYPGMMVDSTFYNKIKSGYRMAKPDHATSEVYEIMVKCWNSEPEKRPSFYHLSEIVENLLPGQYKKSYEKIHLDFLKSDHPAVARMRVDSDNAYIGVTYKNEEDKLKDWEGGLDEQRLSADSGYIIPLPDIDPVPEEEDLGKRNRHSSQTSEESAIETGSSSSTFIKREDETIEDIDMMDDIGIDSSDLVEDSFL

[20] = target: Tyrosine-protein kinase CSK (Homo sapiens) (UniProt P41240); experiment: Inhibition of CSK (unknown origin) at 100 nM
[21] = target: SRSF protein kinase 1 (Homo sapiens) (UniProt Q96SB4); experiment: Inhibition of SRPK1 (unknown origin) at 100 nM
[22] = target: Serine/threonine-protein kinase MRCK alpha (Homo sapiens) (UniProt Q5VT25); experiment: Inhibition of MRCKalpha (unknown origin) at 100 nM
[23] = system: Mast/stem cell growth factor receptor Kit (Homo sapiens), P10721 [V654A]; experiment: Inhibition of KIT V654A mutant (unknown origin) at 100 nM
[24] = target: Mitogen-activated protein kinase kinase kinase kinase 4 (Homo sapiens) (UniProt O95819); experiment: Inhibition of MAP4K4 (unknown origin) at 100 nM
[25] = target: LIM domain kinase 1 (Homo sapiens) (UniProt P53667); experiment: Inhibition of LIMK1 (unknown origin) at 100 nM
[26] = target: Serine/threonine-protein kinase MARK1 (Homo sapiens) (UniProt Q9P0L2); experiment: Inhibition of MARK1 (unknown origin) at 100 nM
[27] = target: Rho-associated protein kinase 2 (Homo sapiens) (UniProt O75116); experiment: Inhibition of ROCK2 (unknown origin) at 100 nM
[28] = target: Tyrosine-protein kinase HCK (Homo sapiens) (UniProt P08631); experiment: Inhibition of HCK (unknown origin) at 100 nM
[29] = system: Fibroblast growth factor receptor 3 (Homo sapiens), P22607 [K650E]; experiment: Inhibition of FGFR3 K650E mutant (unknown origin) at 100 nM
Sequence of Fibroblast growth factor receptor 3 (Homo sapiens), P22607 [K650E] (P22607 whole entry K650E): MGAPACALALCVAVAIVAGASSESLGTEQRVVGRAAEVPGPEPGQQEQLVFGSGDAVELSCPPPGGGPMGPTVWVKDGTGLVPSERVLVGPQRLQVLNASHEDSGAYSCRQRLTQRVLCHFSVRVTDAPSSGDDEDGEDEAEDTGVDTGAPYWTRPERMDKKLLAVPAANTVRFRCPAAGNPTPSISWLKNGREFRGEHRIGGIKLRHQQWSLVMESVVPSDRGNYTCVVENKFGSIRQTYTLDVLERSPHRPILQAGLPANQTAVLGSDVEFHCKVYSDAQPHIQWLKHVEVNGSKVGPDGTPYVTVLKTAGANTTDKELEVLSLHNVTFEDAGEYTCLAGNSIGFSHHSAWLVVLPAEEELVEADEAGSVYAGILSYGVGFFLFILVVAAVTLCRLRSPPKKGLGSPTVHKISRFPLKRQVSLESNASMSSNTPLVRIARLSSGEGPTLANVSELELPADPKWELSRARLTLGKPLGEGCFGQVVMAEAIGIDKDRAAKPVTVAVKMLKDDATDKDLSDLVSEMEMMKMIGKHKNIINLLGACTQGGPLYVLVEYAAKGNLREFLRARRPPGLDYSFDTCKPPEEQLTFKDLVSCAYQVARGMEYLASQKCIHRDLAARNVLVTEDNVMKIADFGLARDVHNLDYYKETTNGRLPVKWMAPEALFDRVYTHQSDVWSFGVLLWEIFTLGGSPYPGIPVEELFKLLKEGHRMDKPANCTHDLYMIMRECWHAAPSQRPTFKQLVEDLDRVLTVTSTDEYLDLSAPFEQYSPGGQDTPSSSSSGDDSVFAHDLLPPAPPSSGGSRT

[30] = target: Serine/threonine-protein kinase 3 (Homo sapiens) (UniProt Q13188); experiment: Inhibition of MST2 (unknown origin) at 100 nM
Sequence of Serine/threonine-protein kinase 3 (Homo sapiens) (Q13188 whole entry): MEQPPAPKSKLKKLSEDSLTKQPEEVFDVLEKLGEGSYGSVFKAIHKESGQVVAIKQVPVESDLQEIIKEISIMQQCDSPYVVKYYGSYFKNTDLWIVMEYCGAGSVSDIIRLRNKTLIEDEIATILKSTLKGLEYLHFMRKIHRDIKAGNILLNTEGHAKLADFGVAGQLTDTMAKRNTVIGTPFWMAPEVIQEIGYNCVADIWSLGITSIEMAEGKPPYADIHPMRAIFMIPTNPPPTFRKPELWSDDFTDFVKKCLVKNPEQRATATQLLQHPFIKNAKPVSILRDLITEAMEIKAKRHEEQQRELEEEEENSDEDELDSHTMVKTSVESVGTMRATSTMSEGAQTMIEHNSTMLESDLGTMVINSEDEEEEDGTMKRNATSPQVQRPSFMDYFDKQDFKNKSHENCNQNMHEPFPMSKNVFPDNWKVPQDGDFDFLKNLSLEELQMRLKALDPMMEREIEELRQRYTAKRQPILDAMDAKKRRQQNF

[31] = target: Serine/threonine-protein kinase Nek2 (Homo sapiens) (UniProt P51955); experiment: Inhibition of NEK2 (unknown origin) at 100 nM
Sequence of Serine/threonine-protein kinase Nek2 (Homo sapiens) (P51955 whole entry): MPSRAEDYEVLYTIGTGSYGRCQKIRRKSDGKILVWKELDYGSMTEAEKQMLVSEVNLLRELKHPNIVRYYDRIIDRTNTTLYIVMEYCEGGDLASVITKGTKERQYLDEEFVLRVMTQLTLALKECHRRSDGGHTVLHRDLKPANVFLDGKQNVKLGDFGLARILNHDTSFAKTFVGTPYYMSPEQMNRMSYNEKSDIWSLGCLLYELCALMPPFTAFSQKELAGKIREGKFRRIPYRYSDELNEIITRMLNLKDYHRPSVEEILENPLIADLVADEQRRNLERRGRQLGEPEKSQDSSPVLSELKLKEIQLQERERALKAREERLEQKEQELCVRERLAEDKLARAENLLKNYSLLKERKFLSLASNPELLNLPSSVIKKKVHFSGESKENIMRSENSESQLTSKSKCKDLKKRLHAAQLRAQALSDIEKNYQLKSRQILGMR

[32] = target: Serine/threonine-protein kinase Nek6 (Homo sapiens) (UniProt Q9HC98); experiment: Inhibition of NEK6 (unknown origin) at 100 nM
Sequence of Serine/threonine-protein kinase Nek6 (Homo sapiens) (Q9HC98 whole entry): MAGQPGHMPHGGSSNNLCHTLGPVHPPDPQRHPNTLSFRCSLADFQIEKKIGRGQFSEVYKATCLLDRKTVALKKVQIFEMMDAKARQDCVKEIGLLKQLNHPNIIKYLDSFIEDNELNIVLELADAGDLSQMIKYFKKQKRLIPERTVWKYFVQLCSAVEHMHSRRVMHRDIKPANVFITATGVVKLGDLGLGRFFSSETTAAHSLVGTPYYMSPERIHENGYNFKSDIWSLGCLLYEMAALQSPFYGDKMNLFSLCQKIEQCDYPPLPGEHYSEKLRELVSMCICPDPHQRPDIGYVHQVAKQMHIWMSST

[33] = target: Ephrin type-B receptor 3 (Homo sapiens) (UniProt P54753); experiment: Inhibition of EPHB3 (unknown origin) at 100 nM
[34] = target: Protein kinase C eta type (Homo sapiens) (UniProt P24723); experiment: Inhibition of PKCeta (unknown origin) at 100 nM
[35] = target: Dual specificity protein kinase TTK (Homo sapiens) (UniProt P33981); experiment: Inhibition of TTK (unknown origin) at 100 nM
[36] = target: Protein kinase C epsilon type (Homo sapiens) (UniProt Q02156); experiment: Inhibition of PKCepsilon (unknown origin) at 100 nM
[37] = target: Proto-oncogene tyrosine-protein kinase Src (Homo sapiens) (UniProt P12931); experiment: Inhibition of SRCN1 (unknown origin) at 100 nM
[38] = target: Receptor-interacting serine/threonine-protein kinase 2 (Homo sapiens) (UniProt O43353); experiment: Inhibition of RIPK2 (unknown origin) at 100 nM
[39] = target: Calcium/calmodulin-dependent protein kinase type 1D (Homo sapiens) (UniProt Q8IU85); experiment: Inhibition of CaMKIdelta (unknown origin) at 100 nM
[40] = target: Serine/threonine-protein kinase D2 (Homo sapiens) (UniProt Q9BZL6); experiment: Inhibition of PKD2 (unknown origin) at 100 nM
[41] = target: Receptor tyrosine-protein kinase erbB-4 (Homo sapiens) (UniProt Q15303); experiment: Inhibition of ERBB4 (unknown origin) at 100 nM
[42] = target: Dual specificity protein kinase CLK4 (Homo sapiens) (UniProt Q9HAZ1); experiment: Inhibition of CLK4 (unknown origin) at 100 nM

## CC1(C)OCc2c(Nc3n[nH]c4ccccc34)nc(-c3cn[nH]c3)nc21
[1]
  inhibition: -0.2%
[2]
  inhibition: 7%
[3]
  inhibition: 14.5%
[4]
  inhibition: 3.1%
[5]
  inhibition: 4.2%
[6]
  inhibition: 11.2%
[7]
  inhibition: 1.8%
[8]
  inhibition: 1.7%
[9]
  inhibition: 32%
[10]
  inhibition: 83.7%
[11]
  inhibition: 3.5%
[12]
  inhibition: 22%
[13]
  inhibition: -2%
[14]
  inhibition: 0%
[15]
  inhibition: 1.4%
[16]
  inhibition: 7.4%
[17]
  inhibition: 8.1%
[18]
  inhibition: -3.5%
[19]
  inhibition: 77.3%
[20]
  inhibition: 3.7%
[21]
  inhibition: 3.9%
[22]
  inhibition: 1.9%
[23]
  inhibition: 1.1%
[24]
  inhibition: 51.3%
[25]
  inhibition: 3.1%
[26]
  inhibition: -1.8%
[27]
  inhibition: -10%
[28]
  inhibition: 65.6%
[29]
  inhibition: 38.8%
[30]
  inhibition: -2.4%
[31]
  inhibition: 7.7%
[32]
  inhibition: 9.9%
[33]
  inhibition: 20.1%
[34]
  inhibition: 15.5%
[35]
  inhibition: 4.3%
[36]
  inhibition: 4.9%
[37]
  inhibition: 47.2%
[38]
  inhibition: 97.2%
[39]
  inhibition: -5.3%
[40]
  inhibition: 7.8%
[41]
  inhibition: 89.9%
[42]
  inhibition: 13.3%
